# Assays:
# Hepatitis C virus = test: Antiviral activity against Hepatitis C virus genotype 2a infected in human Huh-7 cells assessed as reduction in viral infection; type: functional, organism-based, Hepacivirus hominis
# Escherichia coli [1] = test: Antibacterial activity against Escherichia coli assessed as zone of inhibition at 10 ug/ml by agar disc diffusion method; type: functional; settings: read-out: IZ
# Aspergillus niger [2] = test: Antifungal activity against Aspergillus niger assessed as zone of inhibition at 25 ug/ml by disc diffusion method; type: functional; settings: read-out: IZ
# Aspergillus niger [3] = test: Antifungal activity against Aspergillus niger assessed as zone of inhibition at 35 ug/ml by disc diffusion method; type: functional; settings: read-out: IZ
# Staphylococcus aureus [4] = test: Antibacterial activity against Staphylococcus aureus assessed as zone of inhibition at 35 ug/ml by agar disc diffusion method; type: functional; settings: read-out: IZ
# Escherichia coli [5] = test: Antibacterial activity against Escherichia coli assessed as zone of inhibition at 35 ug/ml by agar disc diffusion method; type: functional; settings: read-out: IZ
# Escherichia coli [6] = test: Antibacterial activity against Escherichia coli assessed as zone of inhibition at 25 ug/ml by agar disc diffusion method; type: functional; settings: read-out: IZ
# Candida metapsilosis [7] = test: Antifungal activity against Candida metapsilosis assessed as zone of inhibition at 10 ug/ml by disc diffusion method; type: functional; settings: Lodderomyces metapsilosis, read-out: IZ
# Staphylococcus aureus [8] = test: Antibacterial activity against Staphylococcus aureus assessed as zone of inhibition at 25 ug/ml by agar disc diffusion method; type: functional; settings: read-out: IZ
# Candida metapsilosis [9] = test: Antifungal activity against Candida metapsilosis assessed as zone of inhibition at 35 ug/ml by disc diffusion method; type: functional; settings: Lodderomyces metapsilosis, read-out: IZ
# Candida metapsilosis [10] = test: Antifungal activity against Candida metapsilosis assessed as zone of inhibition at 25 ug/ml by disc diffusion method; type: functional; settings: Lodderomyces metapsilosis, read-out: IZ
# Staphylococcus aureus [11] = test: Antibacterial activity against Staphylococcus aureus assessed as zone of inhibition at 10 ug/ml by agar disc diffusion method; type: functional; settings: read-out: IZ
# Aspergillus niger [12] = test: Antifungal activity against Aspergillus niger assessed as zone of inhibition at 10 ug/ml by disc diffusion method; type: functional; settings: read-out: IZ
# Aphis craccivora = test: Anti-insecticidal activity against Aphis craccivora; type: functional
# Chikungunya virus = test: Antiviral activity against Chikungunya virus infected in Vero E6 cells assessed as inhibition of virus-induced cytopathic effect incubated for 72 hrs by CellTiter Glo luminescence assay; type: functional, organism-based; settings: Vero C1008, 72 h
# [13] = Antiproliferative activity against mouse BaF3/TRP-Met cells
# Rattus norvegicus = test: Anti-inflammatory activity against carrageenan-induced paw edema in rat assessed as inhibition of paw edema at 50 mg/kg, po relative to control; type: functional; set-up: scale not given: the % may be the effect or the level left
# Staphylococcus aureus [14] = test: Antibacterial activity against Staphylococcus aureus assessed as zone of inhibition at 150 ug/ml by agar disc diffusion method; type: functional; settings: read-out: IZ
# Pseudomonas aeruginosa [15] = test: Antibacterial activity against Pseudomonas aeruginosa assessed as zone of inhibition at 200 ug/ml by agar disc diffusion method; type: functional; settings: read-out: IZ
# Pseudomonas aeruginosa [16] = test: Antibacterial activity against Pseudomonas aeruginosa assessed as zone of inhibition at 250 ug/ml by agar disc diffusion method; type: functional; settings: read-out: IZ
# Staphylococcus aureus [17] = test: Antibacterial activity against Staphylococcus aureus assessed as zone of inhibition at 200 ug/ml by agar disc diffusion method; type: functional; settings: read-out: IZ
# Escherichia coli [18] = test: Antibacterial activity against Escherichia coli assessed as zone of inhibition at 150 ug/ml by agar disc diffusion method; type: functional; settings: read-out: IZ
# Escherichia coli [19] = test: Antibacterial activity against Escherichia coli assessed as zone of inhibition at 200 ug/ml by agar disc diffusion method; type: functional; settings: read-out: IZ
# Pseudomonas aeruginosa [20] = test: Antibacterial activity against Pseudomonas aeruginosa assessed as zone of inhibition at 150 ug/ml by agar disc diffusion method; type: functional; settings: read-out: IZ
# Bacillus subtilis [21] = test: Antibacterial activity against Bacillus subtilis assessed as zone of inhibition at 200 ug/ml by agar disc diffusion method; type: functional; settings: read-out: IZ
# Escherichia coli [22] = test: Antibacterial activity against Escherichia coli assessed as zone of inhibition at 250 ug/ml by agar disc diffusion method; type: functional; settings: read-out: IZ
# Bacillus subtilis [23] = test: Antibacterial activity against Bacillus subtilis assessed as zone of inhibition at 150 ug/ml by agar disc diffusion method; type: functional; settings: read-out: IZ
# Bacillus subtilis [24] = test: Antibacterial activity against Bacillus subtilis assessed as zone of inhibition at 250 ug/ml by agar disc diffusion method; type: functional; settings: read-out: IZ
# Staphylococcus aureus [25] = test: Antibacterial activity against Staphylococcus aureus assessed as zone of inhibition at 250 ug/ml by agar disc diffusion method; type: functional; settings: read-out: IZ
# [26] = molecular target: Voltage-gated inwardly rectifying potassium channel KCNH2 (Homo sapiens, UniProt Q12809); test: Inhibition of hERG; type: toxicity
# Sequence of Voltage-gated inwardly rectifying potassium channel KCNH2 (Q12809 whole entry, the tested form may be a part): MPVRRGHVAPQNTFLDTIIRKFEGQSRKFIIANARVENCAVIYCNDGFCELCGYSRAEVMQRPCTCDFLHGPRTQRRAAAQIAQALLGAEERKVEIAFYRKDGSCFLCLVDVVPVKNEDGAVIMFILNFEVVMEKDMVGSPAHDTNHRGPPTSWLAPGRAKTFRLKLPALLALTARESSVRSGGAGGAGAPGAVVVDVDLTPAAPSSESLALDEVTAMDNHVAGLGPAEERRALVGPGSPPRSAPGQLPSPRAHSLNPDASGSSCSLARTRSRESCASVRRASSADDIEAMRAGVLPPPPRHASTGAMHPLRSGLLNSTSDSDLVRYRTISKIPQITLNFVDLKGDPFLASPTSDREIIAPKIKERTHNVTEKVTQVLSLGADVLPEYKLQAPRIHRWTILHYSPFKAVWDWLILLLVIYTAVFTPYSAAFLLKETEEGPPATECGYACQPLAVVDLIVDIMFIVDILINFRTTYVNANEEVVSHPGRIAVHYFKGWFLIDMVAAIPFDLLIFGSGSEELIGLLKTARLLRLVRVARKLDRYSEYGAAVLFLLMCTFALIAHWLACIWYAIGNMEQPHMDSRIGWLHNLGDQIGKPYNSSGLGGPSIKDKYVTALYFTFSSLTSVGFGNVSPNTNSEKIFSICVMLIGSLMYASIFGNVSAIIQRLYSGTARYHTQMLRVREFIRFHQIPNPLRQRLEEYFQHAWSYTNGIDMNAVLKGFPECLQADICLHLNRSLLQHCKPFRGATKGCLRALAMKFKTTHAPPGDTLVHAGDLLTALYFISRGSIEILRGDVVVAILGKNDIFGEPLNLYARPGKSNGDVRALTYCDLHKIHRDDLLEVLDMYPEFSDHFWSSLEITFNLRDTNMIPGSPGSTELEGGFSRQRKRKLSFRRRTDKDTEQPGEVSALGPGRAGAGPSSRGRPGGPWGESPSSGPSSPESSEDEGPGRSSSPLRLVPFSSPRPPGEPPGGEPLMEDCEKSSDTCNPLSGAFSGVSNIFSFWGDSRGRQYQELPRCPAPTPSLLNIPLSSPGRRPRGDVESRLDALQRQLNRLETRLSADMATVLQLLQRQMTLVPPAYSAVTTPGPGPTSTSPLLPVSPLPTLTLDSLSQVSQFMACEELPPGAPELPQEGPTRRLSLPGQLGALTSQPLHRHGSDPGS
# Staphylococcus aureus [27] = test: Antibacterial activity against Staphylococcus aureus assessed as zone of inhibition at 25 ug/ml by agar well diffusion method; type: functional; settings: read-out: IZ
# Escherichia coli [28] = test: Antibacterial activity against Escherichia coli assessed as zone of inhibition at 25 ug/ml by agar well diffusion method; type: functional; settings: read-out: IZ
# Staphylococcus aureus [29] = test: Antibacterial activity against Staphylococcus aureus assessed as zone of inhibition at 35 ug/ml by agar well diffusion method; type: functional; settings: read-out: IZ
# Staphylococcus aureus [30] = test: Antibacterial activity against Staphylococcus aureus assessed as zone of inhibition at 10 ug/ml by agar well diffusion method; type: functional; settings: read-out: IZ
# Escherichia coli [31] = test: Antibacterial activity against Escherichia coli assessed as zone of inhibition at 10 ug/ml by agar well diffusion method; type: functional; settings: read-out: IZ
# Escherichia coli [32] = test: Antibacterial activity against Escherichia coli assessed as zone of inhibition at 35 ug/ml by agar well diffusion method; type: functional; settings: read-out: IZ
compound,measurement,setting,value
FC(F)(F)c1cc(C(F)(F)F)c2ccc3ncc(-c4cncnc4)n3c2n1,EC50,Hepatitis C virus,> 20000 nM
O=[N+]([O-])c1cccc(-c2cc3cccnc3n3c(-c4ccc(Cl)cc4)cnc23)c1,zone of inhibition at 10 µg/mL,Escherichia coli [1],8 mm
same,zone of inhibition at 25 µg/mL,Aspergillus niger [2],20 mm
same,zone of inhibition at 35 µg/mL,Aspergillus niger [3],28 mm
same,zone of inhibition at 35 µg/mL,Staphylococcus aureus [4],29 mm
same,zone of inhibition at 35 µg/mL,Escherichia coli [5],30 mm
same,zone of inhibition at 25 µg/mL,Escherichia coli [6],20 mm
same,zone of inhibition at 10 µg/mL,Candida metapsilosis [7],7 mm
same,zone of inhibition at 25 µg/mL,Staphylococcus aureus [8],19 mm
same,zone of inhibition at 35 µg/mL,Candida metapsilosis [9],28 mm
same,zone of inhibition at 25 µg/mL,Candida metapsilosis [10],17 mm
same,zone of inhibition at 10 µg/mL,Staphylococcus aureus [11],8 mm
same,zone of inhibition at 10 µg/mL,Aspergillus niger [12],7 mm
N#Cc1c(N)nc2c(c1N)C(c1ccc(C(F)(F)F)cc1)C([N+](=O)[O-])=C1N(Cc3ccc(Cl)nc3)CCN12 (stereo unspecified),LC50,Aphis craccivora,31 nM
FC(F)(F)c1cc(C(F)(F)F)c2ccc3nc(-c4nnco4)cn3c2n1,EC50,Chikungunya virus,203 nM
N[C@H]1CC[C@H](n2c(=O)n(Cc3ccc(Cl)c(Cl)c3)c3nc(Oc4ccc(C(=O)N5CCCCC5)cc4)c4cccnc4c32)CC1,IC50,[13],< 1000 nM
COc1ccc(-c2cc3c(C(F)(F)F)cc(C(F)(F)F)nc3n3c(-c4ccc(OC)cc4)cnc23)cc1,EC50,Hepatitis C virus,4100 nM
CCn1cnc2c3cccnc3n(-c3ccccc3)c(=O)c21,Activity,Rattus norvegicus,58.2%
Oc1ccc2nc3c(-c4ccccc4C(F)(F)F)cc4cccnc4n3c2c1,zone of inhibition at 150 µg/mL,Staphylococcus aureus [14],18 mm
same,zone of inhibition at 200 µg/mL,Pseudomonas aeruginosa [15],20 mm
same,zone of inhibition at 250 µg/mL,Pseudomonas aeruginosa [16],22 mm
same,zone of inhibition at 200 µg/mL,Staphylococcus aureus [17],20 mm
same,zone of inhibition at 150 µg/mL,Escherichia coli [18],17 mm
same,zone of inhibition at 200 µg/mL,Escherichia coli [19],22 mm
same,zone of inhibition at 150 µg/mL,Pseudomonas aeruginosa [20],17 mm
same,zone of inhibition at 200 µg/mL,Bacillus subtilis [21],19 mm
same,zone of inhibition at 250 µg/mL,Escherichia coli [22],22 mm
same,zone of inhibition at 150 µg/mL,Bacillus subtilis [23],16 mm
same,zone of inhibition at 250 µg/mL,Bacillus subtilis [24],23 mm
same,zone of inhibition at 250 µg/mL,Staphylococcus aureus [25],22 mm
Cn1cnc2c3cccnc3n(-c3ccccc3)c(=O)c21,Activity,Rattus norvegicus,40%
Cc1cc(C)c2ccc3nc(-c4ccc(F)cc4)c(CN4CCOCC4)n3c2n1,IC50,[26],> 50000 nM
O=c1oc2ccccc2cc1-c1cnc2c(-c3cccc(O)c3)cc3cccnc3n12,zone of inhibition at 10 µg/mL,Escherichia coli [1],8 mm
same,zone of inhibition at 25 µg/mL,Aspergillus niger [2],20 mm
same,zone of inhibition at 35 µg/mL,Aspergillus niger [3],28 mm
same,zone of inhibition at 35 µg/mL,Staphylococcus aureus [4],31 mm
same,zone of inhibition at 35 µg/mL,Escherichia coli [5],32 mm
same,zone of inhibition at 25 µg/mL,Escherichia coli [6],2 mm
same,zone of inhibition at 10 µg/mL,Candida metapsilosis [7],7 mm
same,zone of inhibition at 25 µg/mL,Staphylococcus aureus [8],19 mm
same,zone of inhibition at 35 µg/mL,Candida metapsilosis [9],28 mm
same,zone of inhibition at 25 µg/mL,Candida metapsilosis [10],17 mm
same,zone of inhibition at 10 µg/mL,Staphylococcus aureus [11],8 mm
same,zone of inhibition at 10 µg/mL,Aspergillus niger [12],7 mm
Fc1ccc(-c2cc3cccnc3n3c(-c4ccc(Cl)cc4)cnc23)c(Cl)c1,zone of inhibition at 25 µg/mL,Staphylococcus aureus [27],16 mm
same,zone of inhibition at 25 µg/mL,Escherichia coli [28],16 mm
same,zone of inhibition at 35 µg/mL,Staphylococcus aureus [29],24 mm
same,zone of inhibition at 10 µg/mL,Staphylococcus aureus [30],6 mm
same,zone of inhibition at 10 µg/mL,Escherichia coli [31],6 mm
same,zone of inhibition at 35 µg/mL,Escherichia coli [32],25 mm
COc1ccc(-c2nc3ccc4c(C)cc(C)nc4n3c2CN2CCC(C)CC2)cc1,IC50,[26],1120 nM

# From ChEMBL document CHEMBL6109108, “A comprehensive review of fused imidazonaphthyridine derivatives: Synthetic approaches and biological applications” (Bioorg Med Chem, 2025)
